Consider nine compounds from patent publication US10689383B2, “Optionally fused heterocyclyl-substituted derivatives of pyrimidine useful for the treatment of inflammatory, metabolic, oncologic and autoimmune diseases” (NUEVOLUTION A/S, priority 2014, dated 2020).

Assay [1] concerns the target T1, human RORγt (Ligand Binding Domain) (Homo sapiens, UniProt P51449).
T1 construct: purchased Crelux (Planegg, Germany) batch no PC5032-1
T1 sequence (P51449 269-508 limits assumed): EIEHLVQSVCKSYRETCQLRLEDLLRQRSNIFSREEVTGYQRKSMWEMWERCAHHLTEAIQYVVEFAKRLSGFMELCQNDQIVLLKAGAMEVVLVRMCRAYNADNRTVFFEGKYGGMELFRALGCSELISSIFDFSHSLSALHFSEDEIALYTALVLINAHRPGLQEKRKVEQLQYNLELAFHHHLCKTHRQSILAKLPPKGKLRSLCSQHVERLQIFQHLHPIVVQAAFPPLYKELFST
The experiment in a line: Fluorescence Polarization (FP) Assay. Particulars: Fluorescence Polarization (FP) Assay; values given as upper bounds of activity ranges; read-out: FP activity range. Put shortly: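 Binding to the ligand pocket followed by fluorescence polarization with a TAMRA-tagged RORγt ligand probe of 910 g/mole. Negative control wells received DMSO only.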
Background: Polarisation of emitted light reports the rotation of a fluorescent probe.

Assay [2] concerns the target T2, yeast Gal4-DNA binding domain fused to the ligand binding domain of human RORγ (Homo sapiens, UniProt P51449).
T2 construct: host or cells: HEK293t
T2 sequence (P51449 269-508 limits assumed): T1 sequence (P51449 269-508 limits assumed)
The experiment in a line: RORγ Reporter Assay (Gal4). The settings on record: values given as lower bounds of ranges; for Gal4 activity range @ 0.1 μM (% inhibition): RORγ Reporter Assay (Gal4) at 0.1 μM; for Gal4 activity range @ 1 μM (% inhibition): RORγ Reporter Assay (Gal4) at 1 μM. The class given is cell-based. Put shortly: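 Compound at final 1,000 or 100 nM (0.1% DMSO, triplicate) was added to the transfected HEK293t cells carrying a Gal4-UAS luciferase reporter for 24 h at 37 °C, 10% charcoal-stripped FBS. Activity reduction expressed as percent of vehicle-only luciferase signal.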
(In a reporter assay the amount or activity of a reporter protein is the signal.)

`CC1(CNc2ncnc(N3CCOC[C@@H]3c3ccc(C(F)(F)F)cc3)c2F)CCCCC1O` (stereo partly drawn) [Example 295, 2-[[[5-fluoro-6-[(3S)-3-[4-(trifluoromethyl)phenyl]morpholin-4-yl]pyrimidin-4-yl]amino]methyl]-2-methyl-cyclohexanol]: the IC50 in assay [1] is below 500 nM. In assay [2], the “Gal4 activity range @ 0.1 μM (% inhibition)” value was above 20 % inhibition and the “Gal4 activity range @ 1 μM (% inhibition)” value is above 80 % inhibition.

In the case of `NC(=O)Cc1ccc(CNc2ncnc(N3CCCC3c3ccc4c(c3)OCO4)c2F)cc1` (stereo not drawn) [Example 299, 2-[4-[[[6-[2-(1,3-benzodioxol-5-yl)pyrrolidin-1-yl]-5-fluoro-pyrimidin-4-yl]amino]methyl]phenyl]acetamide], in assay [1], the IC50 was below 1000 nM. Also, in assay [2], the “Gal4 activity range @ 0.1 μM (% inhibition)” value was above 0 % inhibition and the “Gal4 activity range @ 1 μM (% inhibition)” value is given as above 80 % inhibition.

Turning to `NC(=O)Cc1ccc(CNc2ncnc(N3CCCC3c3ccc(O)cc3)c2F)cc1` (stereo not drawn) [Example 300, 2-[4-[[[5-fluoro-6-[2-(4-hydroxyphenyl)pyrrolidin-1-yl]pyrimidin-4-yl]amino]methyl]phenyl]acetamide], the IC50 in assay [1] is below 10000 nM. Further, in assay [2], the “Gal4 activity range @ 0.1 μM (% inhibition)” value was above 20 % inhibition and the “Gal4 activity range @ 1 μM (% inhibition)” value was above 20 % inhibition.

On to `CCOc1ccc(C2CCCN2c2ncnc(NCc3ccc(CC(N)=O)cc3)c2F)cc1` (stereo not drawn) [Example 301, 2-[4-[[[6-[2-(4-ethoxyphenyl)pyrrolidin-1-yl]-5-fluoro-pyrimidin-4-yl]amino]methyl]phenyl]acetamide], for which, in assay [1], the IC50 is below 500 nM. In assay [2], the “Gal4 activity range @ 0.1 μM (% inhibition)” value is above 50 % inhibition and the “Gal4 activity range @ 1 μM (% inhibition)” value is above 80 % inhibition.

Consider `Cc1ccc(C2CCCN2c2ncnc(NCc3ccc(CC(N)=O)cc3)c2F)cc1` (stereo not drawn) [Example 302, 2-[4-[[[5-fluoro-6-[2-(p-tolyl)pyrrolidin-1-yl]pyrimidin-4-yl]amino]methyl]phenyl]acetamide], for which the IC50 in assay [1] was below 500 nM. In assay [2], the “Gal4 activity range @ 0.1 μM (% inhibition)” value is recorded as above 20 % inhibition and the “Gal4 activity range @ 1 μM (% inhibition)” value is recorded as above 50 % inhibition.

Turning to `CC(C)c1ccc(C2CCCN2c2ncnc(NCc3ccc(CC(N)=O)cc3)c2F)cc1` (stereo not drawn) [Example 303, 2-[4-[[[5-fluoro-6-[2-(4-isopropylphenyl)pyrrolidin-1-yl]pyrimidin-4-yl]amino]methyl]phenyl]acetamide], the IC50 in assay [1] was below 500 nM. In assay [2], the “Gal4 activity range @ 0.1 μM (% inhibition)” value is above 80 % inhibition and the “Gal4 activity range @ 1 μM (% inhibition)” value was above 80 % inhibition.

Regarding `COc1cccc(C2CCCN2c2ncnc(NCc3ccc(CC(N)=O)cc3)c2F)c1` (stereo not drawn) [Example 304, 2-[4-[[[5-fluoro-6-[2-(3-methoxyphenyl)pyrrolidin-1-yl]pyrimidin-4-yl]amino]methyl]phenyl]acetamide], the IC50 in assay [1] was below 500 nM. Besides, in assay [2], the “Gal4 activity range @ 0.1 μM (% inhibition)” value is recorded as above 20 % inhibition and the “Gal4 activity range @ 1 μM (% inhibition)” value was above 80 % inhibition.

Regarding `NC(=O)Cc1ccc(CNc2ncnc(N3CCCC3c3cccc(Br)c3)c2F)cc1` (stereo not drawn) [Example 305, 2-[4-[[[6-[2-(3-bromophenyl)pyrrolidin-1-yl]-5-fluoro-pyrimidin-4-yl]amino]methyl]phenyl]acetamide], in assay [1], the IC50 was below 500 nM. Besides, in assay [2], the “Gal4 activity range @ 0.1 μM (% inhibition)” value was above 50 % inhibition and the “Gal4 activity range @ 1 μM (% inhibition)” value is above 80 % inhibition.

Take `NC(=O)Cc1ccc(CNc2ncnc(N3CCCC3c3cccc(Cl)c3)c2F)cc1` (stereo not drawn) [Example 306, 2-[4-[[[6-[2-(3-chlorophenyl)pyrrolidin-1-yl]-5-fluoro-pyrimidin-4-yl]amino]methyl]phenyl]acetamide]: in assay [1], the IC50 is below 500 nM. Further, in assay [2], the “Gal4 activity range @ 0.1 μM (% inhibition)” value was above 50 % inhibition and the “Gal4 activity range @ 1 μM (% inhibition)” value was above 80 % inhibition.
